Experiments:
HLA-B*44:02 = HLA-B*44:02 (Homo sapiens, UniProt P01889, A223V/A65T/A93T/A95T/D201E/D98Y/E176V/E187L/E204Q/E69K/G107R/H137Y/K202T/L105A/L119I/N104T/N87E/Q56L/Q94N/R106L/R155S/R180D/S101N/S121R/S35A/S48T/T118I/V36M/W191S/Y140D/Y91S); assay: Immunopeptidome analysis (W6/32 isolation, LC-MS/MS) of 721.220 cells reconstituted with human tapasin; type: cell-based; details: sheet Overlaps; 1/0 flag; 5% peptide FDR
Experimental: (§1) Approximately 5x10^8 cells were grown for each cell line, and cell pellets were snap frozen. Cell lysis and MHC-I peptide isolation were performed as previously described in detail ([30]). Briefly, cell pellets were lysed by cryomilling and incubation in a non-denaturing lysis buffer (0.5% Igepal CA-630, 50 mM Tris pH 8.0, 150 mM NaCl, 1 x Roche Complete protease inhibitor cocktail). MHC-I complexes were captured from the lysate using 7.5 mg of anti-MHC-I antibody, W6/32, immobilized on protein A Sepharose and subsequently dissociated with 10% acetic acid. The peptides were fractionated and separated from β2m and heavy chain components by reversed-phase high performance liquid chromatography (RP-HPLC). The peptide containing fractions were concentrated and chromatographically distant fractions were combined to generate nine pools, reconstituted in 15 µL 0.1% formic acid containing 500 fmol iRT reference peptides ([31]). Pools were analyzed by liquid chromatography-tandem mass spectrometry (LC-MS/MS) using a SCIEX 5600+ mass spectrometer, equipped with a NanoUltra cHiPLC system (Eksigent) and a Nanospray III ion source. Peptides were trapped on a cHiPLC trap column (3 µm, ChromXP C18CL, 120 Å, 0.5 mm x 200 µm), by loading at 5 µL/min in 0.1% formic acid, 2% acetonitrile, prior to elution over a cHiPLC column (3 µm, ChromXP C18CL, 120 Å, 15 cm x 75 µm) at 300 nL/min with increasing acetonitrile over 75 minutes. The mass spectrometer was operated as follows: ion spray voltage 2400 V, curtain gas 25 l/min, ion source gas 20 l/min, interface heater temperature 150°C, MS1 range 200-1800, MS1 accumulation time 200 ms, MS2 range 60-1800, and MS2 accumulation time 150 ms. The top 20 ions meeting the following criteria were selected for MS/MS fragmentation with rolling collision energy: >200 Da, charge state +2 to +5, >40 cps, dynamic exclusion 30 seconds after two occurrences. Mass spectra were interpreted by database search against the Uniprot/SwissProt ([32]) reviewed human proteome accessed October 2018 using PEAKS Studio XPRO (10.6 build, Bioinformatics Solutions Inc.) and a contaminant database contain the iRT reference peptide sequences using the following parameters: Instrument Triple TOF, fragmentation CID, parent mass error tolerance 25ppm, fragment mass error tolerance 0.1Da, enzyme none, digest mode unspecific, variable modifications Oxidation (M) +15.99 and Deamidation (NQ) +0.98, max variable modifications per peptide 3, False discovery rate (FDR) estimation enabled. A 5% peptide FDR was applied. Peptides identified from similar isolations of MHC class II from closely related 721.221 derived cell lines were excluded from downstream analyses.

HLA-B*44:05 = HLA-B*44:05 (Homo sapiens, UniProt P01889, A223V/A65T/A93T/A95T/D201E/D98Y/E176V/E187L/E204Q/E69K/G107R/H137Y/K202T/L105A/L119I/N104T/N87E/Q56L/Q94N/R106L/R155S/R180D/S101N/S121R/S35A/S48T/T118I/V36M/W191S/Y91S); assay: as above; type: cell-based; details: sheet Overlaps; 1/0 flag; 5% peptide FDR
Experimental: as §1

HLA-B*44:05-W147A = assay: as above; type: cell-based; details: sheet Overlaps; 1/0 flag; 5% peptide FDR
Experimental: as §1

HLA-A*02:01-fos = HLA-A*02:01-fos (Homo sapiens, UniProt P04439, D140Y/D185E/D98H/E176V/E277Q/G131W/G231S/I119V/I121R/I166T/I218V/L300P/L318F/N151K/N90K/P208A/P217A/Q86G/Q94H/R138H/R169H/T345S); assay: In vitro peptide competition experiments (fluorescence polarization)

| Substance | B4402 (peptide identified in immunopeptidome) (HLA-B*44:02) | B4405 (peptide identified in immunopeptidome) (HLA-B*44:05) | B4405 W147A (peptide identified in immunopeptidome) (HLA-B*44:05-W147A) | fold lower than unlabeled FLPSDCFPSV (HLA-A*02:01-fos; index peptide IC50 compared with IC50 of unlabeled FLPSDCFPSV) | IC50 value of the index peptide (HLA-A*02:01-fos; suggested by the divergent effects of TAPBPR on the ability of peptides to compete for binding to HLA-A*02:01) |
| --- | --- | --- | --- | --- | --- |
| FLPSDC^TAMRAFPSV | – | – | – | approximately 20 fold | around 3 µM |
| AEDALHNLDRKW [peptide identified within the immunopeptidomes] | 1 | 1 | 0 | – | – |
| AEMDGAAAAKQVM [peptide identified within the immunopeptidomes] | 1 | 1 | 0 | – | – |

The next lines start with results.

| B4402 (peptide identified in immunopeptidome) (HLA-B*44:02) | B4405 (peptide identified in immunopeptidome) (HLA-B*44:05) | Substance | B4405 W147A (peptide identified in immunopeptidome) (HLA-B*44:05-W147A) | fold lower than unlabeled FLPSDCFPSV (HLA-A*02:01-fos; index peptide IC50 compared with IC50 of unlabeled FLPSDCFPSV) | IC50 value of the index peptide (HLA-A*02:01-fos; suggested by the divergent effects of TAPBPR on the ability of peptides to compete for binding to HLA-A*02:01) |
| --- | --- | --- | --- | --- | --- |
| 1 | 1 | EEVDLSKDIQHW [peptide identified within the immunopeptidomes] | 0 | – | – |
| 1 | 1 | AEIGEGAYGKVF [peptide identified within the immunopeptidomes] | 0 | – | – |
| 1 | 0 | SELALESQTKTY [peptide identified within the HLA-B*44:02 immunopeptidome] | 0 | – | – |

— paper PMC12094946, “Evidence of focusing the MHC class I immunopeptidome by tapasin” (Frontiers in Immunology, 2025)
